US9783527B2, “Indazole ureas and method of use” (AbbVie Inc., priority 2014, dated 2017)

Target: human Nav1.7 (Homo sapiens (Human), UniProt Q15858)
Assay: FRET-based membrane potential assay, recombinant human sodium channel Nav1.7
Type: cell-based
Conditions: HEK293 cells stably expressing recombinant human Nav1.7; depolarization with veratridine (EC80) + scorpion venom
Procedure: FRET-Based Membrane Potential Assays.
Recombinant, Human Sodium Channel, Nav1.7.
Two days prior to the experiment, frozen HEK293 cells stably expressing recombinant human Nav1.7 were quickly thawed and plated at 25,000 cells/well in growth medium [DMEM (Invitrogen #11965) with 10% HI FBS (Invitrogen #10082), 2 mM glutamine, 100 units/mL penicillin, 0.1 mg/mL streptomycin (PSG, Sigma #G1146), and 500 μg/mL Geneticin (Invitrogen #10131)] in black-walled, clear-bottom 384-well poly-D-lysine-coated assay plates (Greiner Bio-One, Frickenhausen, Germany) and incubated in a humidified 5% CO2 incubator at 37° C. On the day of the assay, medium was removed by aspiration, and cells were washed with assay buffer [HBSS (Invitrogen, Carlsbad, Calif.) containing 20 mM HEPES (Invitrogen, Carlsbad, Calif.)]. After washing, 30 μL assay buffer containing the fluorescent voltage-sensor probe CC2-DMPE (Invitrogen, Carlsbad, Calif.) at 20 μM and 0.01% pluronic F-127 (Invitrogen, Carlsbad, Calif.) was added to the cells. Cells were incubated for 40 minutes at room temperature in the dark. Following the incubation, the cells were washed and 30 μL assay buffer containing 2.5 μM DiSBAC2(3) substrate (Invitrogen, Carlsbad, Calif.) and 0.5 mM VABSC-1 (Invitrogen, Carlsbad, Calif.) was added to the cells. The cells were incubated for 90 minutes at room temperature in the dark. Fluorescence readings were made using a FLIPR®^TETRA (Molecular Devices, Sunnyvale Calif.) equipped with voltage-sensor probe optics. At the start of each experiment the optimal (EC80) concentration of depolarizing agent (veratridine) was determined by testing a dilution curve of assay buffer containing veratridine (Sigma-Aldrich, St. Louis, Mo.) and 1 mg/mL scorpion venom (SVqq, from Leiurus quinquestriatus; Sigma-Aldrich, St. Louis, Mo.). […] Test compounds in the daughter plate were diluted to (˜3×) solutions in assay buffer immediately before assaying. Using the FLIPR®^TETRA, 20 μL of the (3×) compound solutions were first added to the cells, then 20 μL of depolarizing solution (3×EC80 veratridine+SVqq) were added 3 minutes later to activate the channel. Changes in fluorescence were measured at wavelengths of 440-480 nm and 565-625 nm over the course of the experimental run. Membrane depolarization was expressed as a ratio of the maximum F440-480 nm/F565-625 nm reading above average baseline F440-480 nm/F565-625 nm reading. IC50 values were calculated from curve fits of the ratio data using a four-parameter logistic Hill equation (Accelrys Assay Explorer 3.3 Client, Accelrys, San Diego, Calif.) with percent inhibition plotted against compound concentration.

human Nav1.7, sequence (Q15858 whole entry): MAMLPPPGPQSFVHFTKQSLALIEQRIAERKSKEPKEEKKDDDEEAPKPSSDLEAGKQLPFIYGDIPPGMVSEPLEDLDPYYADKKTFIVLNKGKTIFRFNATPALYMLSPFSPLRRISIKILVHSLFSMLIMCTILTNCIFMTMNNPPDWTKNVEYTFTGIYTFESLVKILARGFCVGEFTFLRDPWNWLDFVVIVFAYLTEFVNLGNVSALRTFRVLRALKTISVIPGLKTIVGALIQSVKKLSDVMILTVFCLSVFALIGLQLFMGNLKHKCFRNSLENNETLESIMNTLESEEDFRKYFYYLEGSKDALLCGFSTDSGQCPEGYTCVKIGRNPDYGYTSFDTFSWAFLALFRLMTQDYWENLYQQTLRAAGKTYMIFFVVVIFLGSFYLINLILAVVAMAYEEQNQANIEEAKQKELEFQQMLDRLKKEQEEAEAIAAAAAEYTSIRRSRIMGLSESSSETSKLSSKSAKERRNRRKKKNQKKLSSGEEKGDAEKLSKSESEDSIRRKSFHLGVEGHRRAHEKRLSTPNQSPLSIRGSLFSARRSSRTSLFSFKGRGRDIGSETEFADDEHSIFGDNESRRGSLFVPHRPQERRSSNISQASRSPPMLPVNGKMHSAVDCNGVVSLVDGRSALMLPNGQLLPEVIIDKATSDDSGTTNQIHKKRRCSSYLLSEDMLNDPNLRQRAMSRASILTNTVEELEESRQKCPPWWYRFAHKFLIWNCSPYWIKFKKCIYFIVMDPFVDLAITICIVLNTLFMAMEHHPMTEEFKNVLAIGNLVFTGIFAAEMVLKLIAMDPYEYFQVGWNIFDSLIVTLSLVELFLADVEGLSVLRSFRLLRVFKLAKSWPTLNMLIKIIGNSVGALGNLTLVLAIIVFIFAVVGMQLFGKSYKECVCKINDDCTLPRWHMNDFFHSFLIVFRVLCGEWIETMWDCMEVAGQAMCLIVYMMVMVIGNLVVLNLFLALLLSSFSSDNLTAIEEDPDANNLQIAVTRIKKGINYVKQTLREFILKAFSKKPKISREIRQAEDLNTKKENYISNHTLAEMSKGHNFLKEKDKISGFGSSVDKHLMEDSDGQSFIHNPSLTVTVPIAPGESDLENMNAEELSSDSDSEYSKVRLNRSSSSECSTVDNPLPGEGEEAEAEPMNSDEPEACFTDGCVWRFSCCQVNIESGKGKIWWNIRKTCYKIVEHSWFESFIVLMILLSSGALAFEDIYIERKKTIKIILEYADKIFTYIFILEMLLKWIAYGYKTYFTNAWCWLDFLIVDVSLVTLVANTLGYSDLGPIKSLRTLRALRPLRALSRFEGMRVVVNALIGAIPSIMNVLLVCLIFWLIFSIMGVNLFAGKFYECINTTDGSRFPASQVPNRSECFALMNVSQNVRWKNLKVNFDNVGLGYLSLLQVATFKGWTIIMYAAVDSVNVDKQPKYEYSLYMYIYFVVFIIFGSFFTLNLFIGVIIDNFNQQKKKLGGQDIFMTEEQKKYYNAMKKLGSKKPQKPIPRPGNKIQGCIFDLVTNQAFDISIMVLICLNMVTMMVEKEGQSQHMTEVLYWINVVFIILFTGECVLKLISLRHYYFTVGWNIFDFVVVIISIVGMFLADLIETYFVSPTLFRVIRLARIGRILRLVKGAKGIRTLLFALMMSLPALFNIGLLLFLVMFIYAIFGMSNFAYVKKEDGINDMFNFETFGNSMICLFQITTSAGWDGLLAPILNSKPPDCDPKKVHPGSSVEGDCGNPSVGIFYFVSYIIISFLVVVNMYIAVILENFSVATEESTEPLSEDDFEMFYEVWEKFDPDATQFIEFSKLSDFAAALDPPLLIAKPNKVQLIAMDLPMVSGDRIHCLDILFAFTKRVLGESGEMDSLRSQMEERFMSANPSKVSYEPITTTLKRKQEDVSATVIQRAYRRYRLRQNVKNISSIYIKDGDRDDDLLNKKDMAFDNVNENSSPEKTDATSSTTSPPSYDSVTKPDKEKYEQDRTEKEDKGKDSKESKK

| SMILES | IC50 [µM] |
| --- | --- |
| O=C1N(c2cccc3c2cnn3-c2ccccc2F)CCN1[C@H]1CC[C@H](O)CC1 [Example 265, 1-[1-(2-fluorophenyl)-1H-indazol-4-yl]-3-(trans-4-hydroxycyclohexyl)imidazolidin-2-one] | 8.15 |
| Cc1nc(CN2CCN(c3cccc4c3cnn4-c3ccccc3F)C2=O)oc1C [Example 238, 1-[(4,5-dimethyl-1,3-oxazol-2-yl)methyl]-3-[1-(2-fluorophenyl)-1H-indazol-4-yl]imidazolidin-2-one] | 0.586 |
| CCOCCNC(=O)CN1CCN(c2cccc3c2cnn3-c2ccccc2F)C1=O [Example 74, N-(2-ethoxyethyl)-2-{3-[1-(2-fluorophenyl)-1H-indazol-4-yl]-2-oxoimidazolidin-1-yl}acetamide] | 7.54 |
| O=C1N(Cc2cocn2)CCCN1c1cccc2c1cnn2-c1ccccc1F [Example 225, 1-[1-(2-fluorophenyl)-1H-indazol-4-yl]-3-(1,3-oxazol-4-ylmethyl)tetrahydropyrimidin-2(1H)-one] | 14 |
| O=C1N(CC(=O)N2C[C@H](F)C[C@@H]2c2cc(F)ccc2F)CCN1c1cccc2c1cnn2-c1ccccc1F [Example 127, 1-{2-[(2R,4R)-2-(2,5-difluorophenyl)-4-fluoropyrrolidin-1-yl]-2-oxoethyl}-3-[1-(2-fluorophenyl)-1H-indazol-4-yl]imidazolidin-2-one] | 1.56 |
| O=C(CC1CCOC1)CN1CCN(c2cccc3c2cnn3-c2ccccc2F)C1=O (stereo not drawn) [Example 157, 1-[1-(2-fluorophenyl)-1H-indazol-4-yl]-3-[2-oxo-3-(tetrahydrofuran-3-yl)propyl]imidazolidin-2-one] | 3.37 |
| CC(C)CCCC(O)CN1CCN(c2cccc3c2cnn3-c2ccccc2F)C1=O (stereo not drawn) [Example 133, 1-[1-(2-fluorophenyl)-1H-indazol-4-yl]-3-(2-hydroxy-6-methylheptyl)imidazolidin-2-one] | 0.525 |
| O=C(C1CCC1)C(O)N1CCN(c2cccc3c2cnn3-c2ccccc2F)C1=O (stereo not drawn) [Example 166, 1-(2-cyclobutyl-1-hydroxy-2-oxoethyl)-3-[1-(2-fluorophenyl)-1H-indazol-4-yl]imidazolidin-2-one] | 0.435 |
| COC1C2CCC1CN(C(=O)CN1CCN(c3cccc4c3cnn4-c3ccccc3F)C1=O)C2 (stereo not drawn) [Example 109, 1-[1-(2-fluorophenyl)-1H-indazol-4-yl]-3-[2-(8-methoxy-3-azabicyclo[3.2.1]oct-3-yl)-2-oxoethyl]imidazolidin-2-one] | 1.02 |
| C[C@@]1(c2cccc(F)c2)C[C@H](N2CCN(c3cccc4c3cnn4-c3ccccc3F)C2=O)CO1 [Example 195, 2,5-anhydro-1,3,4-trideoxy-2-(3-fluorophenyl)-4-{3-[1-(2-fluorophenyl)-1H-indazol-4-yl]-2-oxoimidazolidin-1-yl}-D-erythro-pentitol] | 1.39 |
| CC(C)CC(O)CN1CCN(c2cccc3c2cnn3-c2ccccc2F)C1=O (stereo not drawn) [Example 123, 1-[1-(2-fluorophenyl)-1H-indazol-4-yl]-3-(2-hydroxy-4-methylpentyl)imidazolidin-2-one] | 0.346 |
| CCOCC1(F)CCN(C(=O)CN2CCN(c3cccc4c3cnn4-c3ccccc3F)C2=O)C1 (stereo not drawn) [Example 98, 1-{2-[3-(ethoxymethyl)-3-fluoropyrrolidin-1-yl]-2-oxoethyl}-3-[1-(2-fluorophenyl)-1H-indazol-4-yl]imidazolidin-2-one] | 1.44 |
| O=C(CN1CCN(c2cccc3c2cnn3-c2ccccc2F)C1=O)c1ccc(F)nc1 [Example 147, 1-[1-(2-fluorophenyl)-1H-indazol-4-yl]-3-[2-(6-fluoropyridin-3-yl)-2-oxoethyl]imidazolidin-2-one] | 1.05 |
| Cc1cc(CN2CCN(c3cccc4c3cnn4-c3ccccc3F)C2=O)on1 [Example 244, 1-[1-(2-fluorophenyl)-1H-indazol-4-yl]-3-[(3-methyl-1,2-oxazol-5-yl)methyl]imidazolidin-2-one] | 3.08 |
| O=C1N(CC(=O)N2CCCC2CN2CCOCC2)CCN1c1cccc2c1cnn2-c1ccccc1F (stereo not drawn) [Example 71, 1-[1-(2-fluorophenyl)-1H-indazol-4-yl]-3-{2-[2-(morpholin-4-ylmethyl)pyrrolidin-1-yl]-2-oxoethyl}imidazolidin-2-one] | 2.34 |
| CC(C)OC1CN(C(=O)CN2CCN(c3cccc4c3cnn4-c3ccccc3F)C2=O)C1 [Example 67, 1-[1-(2-fluorophenyl)-1H-indazol-4-yl]-3-[2-(3-isopropoxyazetidin-1-yl)-2-oxoethyl]imidazolidin-2-one] | 2.43 |
| O=C1N(CC(=O)N2C[C@H](O)C[C@@H]2c2cc(F)ccc2F)CCN1c1cccc2c1cnn2-c1ccccc1F [Example 121, 1-{2-[(2R,4R)-2-(2,5-difluorophenyl)-4-hydroxypyrrolidin-1-yl]-2-oxoethyl}-3-[1-(2-fluorophenyl)-1H-indazol-4-yl]imidazolidin-2-one] | 2.41 |
| C[C@@H]1CN(c2cccc3c2cnn3-c2ccccc2F)C(=O)N1Cc1ncco1 [Example 247, (4R)-1-[1-(2-fluorophenyl)-1H-indazol-4-yl]-4-methyl-3-(1,3-oxazol-2-ylmethyl)imidazolidin-2-one] | 0.981 |
| O=C1N(Cc2cc(C(F)(F)F)ccn2)CCN1c1cccc2c1cnn2-c1ccccc1F [Example 97, 1-[1-(2-fluorophenyl)-1H-indazol-4-yl]-3-{[4-(trifluoromethyl)pyridin-2-yl]methyl}imidazolidin-2-one] | 2.39 |
| COc1nccnc1CN1CCN(c2cccc3c2cnn3-c2ccccc2F)C1=O [Example 248, 1-[1-(2-fluorophenyl)-1H-indazol-4-yl]-3-[(3-methoxypyrazin-2-yl)methyl]imidazolidin-2-one] | 1.04 |
| O=C(CN1CCN(c2cccc3c2cnn3-c2ccccc2F)C1=O)N1CCN2CCCC2C1 (stereo not drawn) [Example 66, 1-[1-(2-fluorophenyl)-1H-indazol-4-yl]-3-[2-(hexahydropyrrolo[1,2-c]pyrazin-2(1H)-yl)-2-oxoethyl]imidazolidin-2-one] | 0.804 |
| CN1[C@H]2CC[C@@H]1CN(C(=O)CN1CCN(c3cccc4c3cnn4-c3ccccc3F)C1=O)CC2 [Example 114, 1-[1-(2-fluorophenyl)-1H-indazol-4-yl]-3-{2-[(1R,6S)-9-methyl-3,9-diazabicyclo[4.2.1]non-3-yl]-2-oxoethyl}imidazolidin-2-one] | 14.3 |
| Cc1cnc(CN2CCN(c3cccc4c3cnn4-c3ccccc3F)C2=O)cn1 [Example 257, 1-[1-(2-fluorophenyl)-1H-indazol-4-yl]-3-[(5-methylpyrazin-2-yl)methyl]imidazolidin-2-one] | 3.09 |
| O=C(CC1CCCCC1)CN1CCN(c2cccc3c2cnn3-c2ccccc2F)C1=O [Example 136, 1-(3-cyclohexyl-2-oxopropyl)-3-[1-(2-fluorophenyl)-1H-indazol-4-yl]imidazolidin-2-one] | 0.928 |
| O=C(CN1CCN(c2cccc3c2cnn3-c2ccccc2)C1=O)N1CCCC1 [Example 277, 1-[2-oxo-2-(pyrrolidin-1-yl)ethyl]-3-(1-phenyl-1H-indazol-4-yl)imidazolidin-2-one] | 3.06 |
| Cc1noc(C)c1N1CCN(c2cccc3c2cnn3-c2ccccc2F)C1=O [Example 236, 1-(3,5-dimethyl-1,2-oxazol-4-yl)-3-[1-(2-fluorophenyl)-1H-indazol-4-yl]imidazolidin-2-one] | 0.924 |
| CC(C)C[C@@](C)(O)CN1CCN(c2cccc3c2cnn3-c2ccccc2F)C1=O [Example 167, 1-[1-(2-fluorophenyl)-1H-indazol-4-yl]-3-[(2R)-2-hydroxy-2,4-dimethylpentyl]imidazolidin-2-one] | 0.893 |
| CC1(C)CC1NC(=O)CN1CCN(c2cccc3c2cnn3-c2ccccc2F)C1=O (stereo not drawn) [Example 328, N-(2,2-dimethylcyclopropyl)-2-{3-[1-(2-fluorophenyl)-1H-indazol-4-yl]-2-oxoimidazolidin-1-yl}acetamide] | 3.02 |
| CCc1nnc(CN2CCN(c3cccc4c3cnn4-c3ccccc3F)C2=O)o1 [Example 261, 1-[(5-ethyl-1,3,4-oxadiazol-2-yl)methyl]-3-[1-(2-fluorophenyl)-1H-indazol-4-yl]imidazolidin-2-one] | 3.41 |
| O=C1N(CC(=O)N2CCC[C@@H]2c2ccccc2)CCN1c1cccc2c1cnn2-c1ccccc1F [Example 128, 1-[1-(2-fluorophenyl)-1H-indazol-4-yl]-3-{2-oxo-2-[(2R)-2-phenylpyrrolidin-1-yl]ethyl}imidazolidin-2-one] | 0.746 |
